Assays:
Experiment in all cases: radiometric filter-binding kinase assay, Kinase HotSpot
Conditions in all cases: compound 0.5 µM; ATP 10 µM
[1] = target: DYRK1A (human) (UniProt Q13627)
[2] = target: BRSK1 (human) (UniProt Q8TDC3)
[3] = target: PKN1 (human) (UniProt Q16512)
[4] = target: CDK5 CDK5R1 p25 (human) (UniProt Q00535+Q15078)
[5] = target: STK17A (human) (UniProt Q9UEE5)
[6] = target: MAP2K2 (human) (UniProt P36507)
[7] = target: PRKCG (human) (UniProt P05129)
[8] = target: MARK3 (human) (UniProt P27448)
[9] = target: MYLK2 (human) (UniProt Q9H1R3)
[10] = target: CLK3 (human) (UniProt P49761)
[11] = target: MAPK13 (human) (UniProt O15264)
[12] = target: NEK2 (human) (UniProt P51955)
[13] = target: WNK2 (human) (UniProt Q9Y3S1)
[14] = target: PDPK1 (human) (UniProt O15530)
[15] = target: EPHA8 (human) (UniProt P29322)
[16] = target: ERBB4 (human) (UniProt Q15303)
[17] = target: HIPK1 (human) (UniProt Q86Z02)
[18] = target: BMX (human) (UniProt P51813)
[19] = target: CSK (human) (UniProt P41240)
[20] = target: WNK3 (human) (UniProt Q9BYP7)
[21] = target: ABL2 (human) (UniProt P42684)
[22] = target: CAMKK2 (human) (UniProt Q96RR4)
[23] = target: CSNK1D (human) (UniProt P48730)
[24] = target: MAP2K1 (human) (UniProt Q02750)
[25] = target: MAPK14 (human) (UniProt Q16539)
[26] = target: AURKC (human) (UniProt Q9UQB9)
[27] = target: FGFR4 (human) (UniProt P22455)
[28] = target: MAPKAPK2 (human) (UniProt P49137)
[29] = target: MARK4 (human) (UniProt Q96L34)
[30] = target: IKBKE (human) (UniProt Q14164)
[31] = target: MERTK (human) (UniProt Q12866)
[32] = target: SGK3 (human) (UniProt Q96BR1)
[33] = target: IRAK1 (human) (UniProt P51617)
[34] = target: CDK9 CCNK (human) (UniProt O75909+P50750)
[35] = target: PASK (human) (UniProt Q96RG2)
[36] = target: DMPK (human) (UniProt Q09013)
[37] = target: PRKCI (human) (UniProt P41743)
[38] = target: GSK3B (human) (UniProt P49841)
[39] = target: MATK (human) (UniProt P42679)
[40] = target: IGF1R (human) (UniProt P08069)
[41] = target: EPHA4 (human) (UniProt P54764)
[42] = target: EPHB3 (human) (UniProt P54753)

Chain of STK17A (human) (Q9UEE5 whole entry, looked up): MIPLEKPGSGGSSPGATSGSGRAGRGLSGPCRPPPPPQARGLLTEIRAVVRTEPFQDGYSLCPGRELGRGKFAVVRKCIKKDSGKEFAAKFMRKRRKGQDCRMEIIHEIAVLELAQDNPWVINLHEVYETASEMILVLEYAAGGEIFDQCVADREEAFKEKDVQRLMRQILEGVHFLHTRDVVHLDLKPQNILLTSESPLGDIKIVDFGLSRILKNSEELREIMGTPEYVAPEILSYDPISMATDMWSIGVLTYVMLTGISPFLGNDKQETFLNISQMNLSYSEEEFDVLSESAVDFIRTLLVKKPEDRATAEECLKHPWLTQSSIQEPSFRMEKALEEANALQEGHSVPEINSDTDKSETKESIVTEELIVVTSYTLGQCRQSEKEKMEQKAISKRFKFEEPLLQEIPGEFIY
Chain of MERTK (human) (Q12866 whole entry, looked up): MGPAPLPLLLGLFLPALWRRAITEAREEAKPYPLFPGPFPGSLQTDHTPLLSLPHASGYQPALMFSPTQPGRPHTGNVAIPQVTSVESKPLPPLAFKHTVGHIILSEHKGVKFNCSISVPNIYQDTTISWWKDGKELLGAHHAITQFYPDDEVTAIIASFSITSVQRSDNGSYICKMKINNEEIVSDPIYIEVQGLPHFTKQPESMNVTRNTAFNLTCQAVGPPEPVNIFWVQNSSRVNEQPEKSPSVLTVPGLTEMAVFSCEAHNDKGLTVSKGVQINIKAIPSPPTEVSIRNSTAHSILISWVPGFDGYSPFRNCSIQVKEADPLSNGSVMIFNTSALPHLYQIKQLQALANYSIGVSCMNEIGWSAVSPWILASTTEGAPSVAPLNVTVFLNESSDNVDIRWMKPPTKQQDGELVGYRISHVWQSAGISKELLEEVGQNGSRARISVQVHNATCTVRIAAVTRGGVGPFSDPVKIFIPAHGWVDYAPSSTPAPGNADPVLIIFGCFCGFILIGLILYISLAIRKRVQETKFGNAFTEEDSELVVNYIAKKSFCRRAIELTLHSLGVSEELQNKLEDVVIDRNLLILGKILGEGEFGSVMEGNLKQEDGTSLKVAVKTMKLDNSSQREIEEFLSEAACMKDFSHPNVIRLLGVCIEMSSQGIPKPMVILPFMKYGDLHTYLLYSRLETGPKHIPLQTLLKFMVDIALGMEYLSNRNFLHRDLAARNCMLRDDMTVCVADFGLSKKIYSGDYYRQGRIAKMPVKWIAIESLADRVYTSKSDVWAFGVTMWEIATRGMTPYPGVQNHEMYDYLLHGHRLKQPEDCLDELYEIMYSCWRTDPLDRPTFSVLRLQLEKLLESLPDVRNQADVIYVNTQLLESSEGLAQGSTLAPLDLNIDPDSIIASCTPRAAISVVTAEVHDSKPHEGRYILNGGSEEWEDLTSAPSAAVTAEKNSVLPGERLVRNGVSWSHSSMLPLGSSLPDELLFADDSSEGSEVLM
Chain of SGK3 (human) (Q96BR1 whole entry, looked up): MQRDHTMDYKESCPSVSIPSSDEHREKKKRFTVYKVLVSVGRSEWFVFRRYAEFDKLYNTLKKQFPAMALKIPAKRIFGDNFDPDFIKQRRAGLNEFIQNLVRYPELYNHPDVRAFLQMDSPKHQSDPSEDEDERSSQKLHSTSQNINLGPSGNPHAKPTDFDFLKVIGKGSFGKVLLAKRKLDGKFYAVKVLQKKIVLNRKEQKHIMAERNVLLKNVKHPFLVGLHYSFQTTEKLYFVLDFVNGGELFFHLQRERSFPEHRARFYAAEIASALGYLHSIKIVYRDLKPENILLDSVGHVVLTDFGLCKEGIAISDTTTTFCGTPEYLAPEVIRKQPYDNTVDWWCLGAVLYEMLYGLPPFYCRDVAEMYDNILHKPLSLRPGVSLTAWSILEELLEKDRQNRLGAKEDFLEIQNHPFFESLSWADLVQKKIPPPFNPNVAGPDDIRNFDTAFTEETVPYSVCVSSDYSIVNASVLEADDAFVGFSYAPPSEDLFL
Chain of MAPK13 (human) (O15264 whole entry, looked up): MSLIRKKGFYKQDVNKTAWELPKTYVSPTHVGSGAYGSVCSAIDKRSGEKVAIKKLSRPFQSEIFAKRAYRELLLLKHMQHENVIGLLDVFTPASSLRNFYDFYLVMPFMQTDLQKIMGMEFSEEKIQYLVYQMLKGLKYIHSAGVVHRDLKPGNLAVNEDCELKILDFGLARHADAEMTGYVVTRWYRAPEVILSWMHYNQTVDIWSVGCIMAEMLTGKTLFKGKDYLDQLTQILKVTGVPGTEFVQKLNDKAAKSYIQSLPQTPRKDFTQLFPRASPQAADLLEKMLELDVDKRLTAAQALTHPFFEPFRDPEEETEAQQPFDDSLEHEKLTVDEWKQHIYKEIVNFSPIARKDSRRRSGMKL
Chain of CDK5 CDK5R1 p25 (human) (Q00535 whole entry, looked up): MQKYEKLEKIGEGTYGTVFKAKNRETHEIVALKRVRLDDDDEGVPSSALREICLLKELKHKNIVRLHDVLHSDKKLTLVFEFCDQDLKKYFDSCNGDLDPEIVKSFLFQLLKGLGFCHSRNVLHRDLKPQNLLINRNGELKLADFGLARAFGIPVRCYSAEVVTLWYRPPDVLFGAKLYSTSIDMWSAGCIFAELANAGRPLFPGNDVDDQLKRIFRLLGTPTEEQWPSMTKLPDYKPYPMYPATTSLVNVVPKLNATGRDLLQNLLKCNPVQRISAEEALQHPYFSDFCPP
Chain of CDK5 CDK5R1 p25 (human) (Q15078 whole entry, looked up): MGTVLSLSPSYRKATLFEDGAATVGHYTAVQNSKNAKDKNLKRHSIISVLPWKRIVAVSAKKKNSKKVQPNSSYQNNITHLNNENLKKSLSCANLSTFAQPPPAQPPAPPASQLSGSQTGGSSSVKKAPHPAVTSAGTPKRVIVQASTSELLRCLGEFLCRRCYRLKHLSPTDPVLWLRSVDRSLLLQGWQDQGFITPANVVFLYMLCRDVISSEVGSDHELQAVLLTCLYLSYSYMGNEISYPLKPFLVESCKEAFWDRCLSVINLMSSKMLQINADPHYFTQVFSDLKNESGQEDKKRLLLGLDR
Chain of MARK3 (human) (P27448 whole entry, looked up): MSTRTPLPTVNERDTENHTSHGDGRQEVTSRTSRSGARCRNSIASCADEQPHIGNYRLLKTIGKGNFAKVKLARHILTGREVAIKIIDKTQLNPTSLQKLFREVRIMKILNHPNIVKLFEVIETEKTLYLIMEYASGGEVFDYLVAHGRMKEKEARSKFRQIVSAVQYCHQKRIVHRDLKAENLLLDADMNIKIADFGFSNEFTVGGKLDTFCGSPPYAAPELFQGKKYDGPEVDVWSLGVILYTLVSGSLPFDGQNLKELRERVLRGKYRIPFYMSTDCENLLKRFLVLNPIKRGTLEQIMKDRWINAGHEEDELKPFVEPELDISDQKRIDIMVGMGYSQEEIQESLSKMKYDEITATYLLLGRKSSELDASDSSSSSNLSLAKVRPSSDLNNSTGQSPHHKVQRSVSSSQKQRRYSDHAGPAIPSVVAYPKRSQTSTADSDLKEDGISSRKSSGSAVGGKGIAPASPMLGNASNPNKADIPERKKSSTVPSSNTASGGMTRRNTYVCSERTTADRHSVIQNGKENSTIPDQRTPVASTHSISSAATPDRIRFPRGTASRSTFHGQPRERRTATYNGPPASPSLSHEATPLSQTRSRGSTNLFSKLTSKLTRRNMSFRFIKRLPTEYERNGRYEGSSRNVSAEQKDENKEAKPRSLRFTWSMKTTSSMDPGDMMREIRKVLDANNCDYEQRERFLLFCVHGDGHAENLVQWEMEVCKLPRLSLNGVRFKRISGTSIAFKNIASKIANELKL
Chain of CDK9 CCNK (human) (O75909 whole entry, looked up): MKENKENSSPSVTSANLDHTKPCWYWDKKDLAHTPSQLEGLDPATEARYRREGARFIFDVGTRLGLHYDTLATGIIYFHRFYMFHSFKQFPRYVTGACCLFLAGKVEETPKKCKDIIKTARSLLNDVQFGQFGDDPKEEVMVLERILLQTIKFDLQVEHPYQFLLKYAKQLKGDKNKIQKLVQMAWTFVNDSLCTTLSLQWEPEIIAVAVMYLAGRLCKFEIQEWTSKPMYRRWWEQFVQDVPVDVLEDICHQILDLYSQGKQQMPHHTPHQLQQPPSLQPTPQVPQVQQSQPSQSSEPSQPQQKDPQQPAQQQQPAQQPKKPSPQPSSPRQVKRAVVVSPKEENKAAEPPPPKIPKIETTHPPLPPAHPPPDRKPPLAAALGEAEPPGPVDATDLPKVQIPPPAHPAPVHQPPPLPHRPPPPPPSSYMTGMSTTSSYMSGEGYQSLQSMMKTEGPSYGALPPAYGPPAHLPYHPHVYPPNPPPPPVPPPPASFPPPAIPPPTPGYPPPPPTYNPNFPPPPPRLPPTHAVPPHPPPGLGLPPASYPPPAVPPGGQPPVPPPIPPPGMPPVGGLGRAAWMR
Chain of CDK9 CCNK (human) (P50750 whole entry, looked up): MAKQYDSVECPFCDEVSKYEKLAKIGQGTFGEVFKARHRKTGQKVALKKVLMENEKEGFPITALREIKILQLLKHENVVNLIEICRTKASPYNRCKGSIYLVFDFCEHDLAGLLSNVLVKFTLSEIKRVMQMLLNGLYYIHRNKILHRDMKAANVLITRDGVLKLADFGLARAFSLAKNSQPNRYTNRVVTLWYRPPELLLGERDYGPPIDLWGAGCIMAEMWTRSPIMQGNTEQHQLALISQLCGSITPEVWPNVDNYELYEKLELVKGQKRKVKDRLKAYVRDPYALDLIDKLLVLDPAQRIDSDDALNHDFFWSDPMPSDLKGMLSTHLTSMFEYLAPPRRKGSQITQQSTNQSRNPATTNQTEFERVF
Chain of MAP2K1 (human) (Q02750 whole entry, looked up): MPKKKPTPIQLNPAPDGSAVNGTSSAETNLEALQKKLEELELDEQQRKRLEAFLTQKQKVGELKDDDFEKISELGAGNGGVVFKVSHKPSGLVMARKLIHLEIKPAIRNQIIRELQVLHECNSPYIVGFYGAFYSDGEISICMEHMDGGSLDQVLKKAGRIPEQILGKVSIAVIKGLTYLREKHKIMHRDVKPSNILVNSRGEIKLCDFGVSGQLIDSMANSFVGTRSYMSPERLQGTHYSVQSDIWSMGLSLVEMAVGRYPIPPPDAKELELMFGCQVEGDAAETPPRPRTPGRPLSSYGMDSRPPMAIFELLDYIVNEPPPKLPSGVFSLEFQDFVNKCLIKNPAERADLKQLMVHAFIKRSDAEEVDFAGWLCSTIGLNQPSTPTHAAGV

Structure (SMILES): Nc1n[nH]c2nnc(-c3c(-c4ccccc4)nn4ccccc34)cc12
- residual activity [1]: 102%
- residual activity [2]: 98.6%
- residual activity [3]: 98.2%
- residual activity [4]: 101%
- residual activity [5]: 99.9%
- residual activity [6]: 99.4%
- residual activity [7]: 103%
- residual activity [8]: 99.3%
- residual activity [9]: 101%
- residual activity [10]: 94.9%
- residual activity [11]: 101%
- residual activity [12]: 95.3%
- residual activity [13]: 111%
- residual activity [14]: 104%
- residual activity [15]: 100%
- residual activity [16]: 91.4%
- residual activity [17]: 99.7%
- residual activity [18]: 84.4%
- residual activity [19]: 98%
- residual activity [20]: 101%
- residual activity [21]: 57.5%
- residual activity [22]: 101%
- residual activity [23]: 63.2%
- residual activity [24]: 94.3%
- residual activity [25]: 94.6%
- residual activity [26]: 96.4%
- residual activity [27]: 104%
- residual activity [28]: 105%
- residual activity [29]: 105%
- residual activity [30]: 95.5%
- residual activity [31]: 76.4%
- residual activity [32]: 90.2%
- residual activity [33]: 105%
- residual activity [34]: 98.5%
- residual activity [35]: 99.8%
- residual activity [36]: 103%
- residual activity [37]: 98.3%
- residual activity [38]: 109%
- residual activity [39]: 95.6%
- residual activity [40]: 102%
- residual activity [41]: 85.9%
- residual activity [42]: 96.8%

Structure (SMILES): O=C(NC(NC(=S)Nc1ccc(F)c([N+](=O)[O-])c1)C(Cl)(Cl)Cl)C(c1ccccc1)c1ccccc1 (stereo unspecified)
- residual activity [1]: 99.8%
- residual activity [2]: 98.3%
- residual activity [3]: 92.8%
- residual activity [4]: 96.8%
- residual activity [5]: 99.8%
- residual activity [6]: 82.3%
- residual activity [7]: 99.8%
- residual activity [8]: 104%
- residual activity [9]: 104%
- residual activity [10]: 124%
- residual activity [11]: 107%
- residual activity [12]: 112%
- residual activity [13]: 117%
- residual activity [14]: 112%
- residual activity [15]: 104%
- residual activity [16]: 103%
- residual activity [17]: 108%
- residual activity [18]: 102%
- residual activity [19]: 99.3%
- residual activity [20]: 108%
- residual activity [21]: 105%
- residual activity [22]: 126%
- residual activity [23]: 105%
- residual activity [24]: 95.1%
- residual activity [25]: 101%
- residual activity [26]: 93.8%
- residual activity [27]: 100%
- residual activity [28]: 96.3%
- residual activity [29]: 104%
- residual activity [30]: 106%
- residual activity [31]: 96.2%
- residual activity [32]: 85.8%
- residual activity [33]: 107%
- residual activity [34]: 110%
- residual activity [35]: 104%
- residual activity [36]: 85.5%
- residual activity [37]: 94%
- residual activity [38]: 109%
- residual activity [39]: 96.5%
- residual activity [40]: 93.7%
- residual activity [41]: 101%
- residual activity [42]: 104%

Structure (SMILES): Nc1nc(Nc2ccc(S(N)(=O)=O)cc2)nn1C(=S)Nc1c(F)cccc1F
- residual activity [1]: 15.3%
- residual activity [2]: 2.61%
- residual activity [3]: 9.7%
- residual activity [4]: 0.156%
- residual activity [5]: 11.1%
- residual activity [6]: 96.6%
- residual activity [7]: 93%
- residual activity [8]: 0.29%
- residual activity [9]: 66.6%
- residual activity [10]: 4.64%
- residual activity [11]: 77.1%
- residual activity [12]: 98.3%
- residual activity [13]: 97.9%
- residual activity [14]: 19.3%
- residual activity [15]: 98.5%
- residual activity [16]: 98%
- residual activity [17]: 105%
- residual activity [18]: 77.5%
- residual activity [19]: 76.8%
- residual activity [20]: 82.2%
- residual activity [21]: 10.5%
- residual activity [22]: 5.4%
- residual activity [23]: 83.7%
- residual activity [24]: 94.6%
- residual activity [25]: 95.4%
- residual activity [26]: 16.2%
- residual activity [27]: 32.2%
- residual activity [28]: 91.1%
- residual activity [29]: 2.33%
- residual activity [30]: 67.2%
- residual activity [31]: 14.8%
- residual activity [32]: 98.4%
- residual activity [33]: 16.9%
- residual activity [34]: 7.46%
- residual activity [35]: 91.8%
- residual activity [36]: 78.4%
- residual activity [37]: 78.9%
- residual activity [38]: 9.03%
- residual activity [39]: 133%
- residual activity [40]: 0.625%
- residual activity [41]: 54.8%
- residual activity [42]: 90.4%

Source: the kinase profiling compilation of Christmann-Franck et al. (2016)
